Test results as given in US12215085B2 (priority 2019, dated 2025).
Marks after values point to notes of the source that are not given here.

Columns and labels:
[1] = tested on: rats with beta-amyloid induced senile dementia; experiment: Water maze test, beta-amyloid induced senile dementia rats; type: in vivo, rat; details: succinate; for time for reaching the platform / orientation angle for reaching the platform / speed for reaching the platform / swimming path length for reaching the platform: x ± s
[2] = tested on: rat; experiment: Acute toxicity LD50, rat; details: clinical daily dosage 8 mg/60 kg human/day, per kilogram body weight
[3] = Acute toxicity LD50, rat; details: in vivo, po
[4] = Physical and chemical stability (XRPD, HPLC); type: physicochemical
Description: • (1) The physical and chemical stability evaluations were performed after Crystal Form A was placed in a closed condition at 80° C. for 24 hours. • (2) The physical and chemical stability evaluations were performed after Crystal Form A was placed in an open condition at 25° C./60% relative humidity and 40° C./75% relative humidity respectively for one week.
The physical and chemical stabilities of the samples were tested by XRPD and HPLC.

[5] = tested on: rats with common carotid artery occlusion-induced vascular dementia; experiment: Brain pathological examination, common carotid artery occlusion-induced vascular dementia rats; type: in vivo, rat; details: 1.4 mg/kg and 2.8 mg/kg
[6] = 24 hours equilibrium solubility in water; type: physicochemical; details: thermodynamic from solid, room temperature, initial concentration about 100 mg/mL, read-out: 24 hours equilibrium solubility in H2O
Description: Step: 24 hours equilibrium solubility of the sample of Crystal Form A in water was tested at room temperature. In the experiment, after mixing the sample of crystal form with water to form a suspension (initial concentration was about 100 mg/mL), the stirring was carried out for 24 hours (1000 rpm) at room temperature, a supernatant obtained from the centrifugation was filtered and the solubility was measured, and the residual solid was subjected to the XRPD test.

[7] = Acute toxicity LD50, mouse; details: in vivo, po
[8] = tested on: mouse; experiment: Acute toxicity LD50, mouse; details: clinical daily dosage 8 mg/60 kg human/day, per kilogram body weight
[9] = tested on: mice; experiment: General pharmacological study in mice; type: in vivo
[10] = Dynamic moisture sorption (DVS) hygroscopicity; type: physicochemical; details: 25° C.; begins to significantly absorb water at 90% relative humidity
Description: In order to evaluate the stability of Crystal Form A under different humidity conditions, a dynamic moisture sorption (DVS) test was carried out on the sample of Crystal Form A under the constant temperature condition of 25° C.

[11] = tested on: rats with beta-amyloid induced senile dementia; experiment: Brain pathological examination, beta-amyloid induced senile dementia rats; type: in vivo, rat
[12] = tested on: Wistar rats; experiment: Long-term toxicity, 27 weeks, Wistar rats
Description: 120 Wistar rats were used, 30 rats per group, wherein half of them were males and half were females. The administration route was ig administration, once per day, 6-day administration per week, and a 27-week test period.

[13] = Day 4, 1.4 mg/kg intragastric, 1.4 mg/kg
[14] = Day 4, 2.8 mg/kg intragastric, 2.8 mg/kg
[15] = Day 5, 0.7 mg/kg intragastric, 0.7 mg/kg
[16] = Day 5, 1.4 mg/kg intragastric, 1.4 mg/kg
[17] = Day 5, 2.8 mg/kg intragastric, 2.8 mg/kg
[18] = Day 6, 0.7 mg/kg intragastric, 0.7 mg/kg
[19] = Day 6, 1.4 mg/kg intragastric, 1.4 mg/kg
[20] = Day 6, 2.8 mg/kg intragastric, 2.8 mg/kg

Nc1c2c(nc3c1CCCC3)CCCC2.O=C(O)CCC(=O)O [Crystal Form A, 9-amino-1,2,3,4,5,6,7,8-octahydroacridine succinate]
time for reaching the platform ([1]; Day 4, 0.7 mg/kg intragastric, 0.7 mg/kg): 32.05 ± 39.88 s
adopted strategy for reaching the platform (the peripheral type and the random type %) [1, 13]: 77.50%
orientation angle for reaching the platform [1, 13]: 53.54 ± 25.57 °
speed for reaching the platform [1, 13]: 25.56 ± 4.54 cm/s
swimming path length for reaching the platform [1, 13]: 493.65 ± 256.60 cm
time for reaching the platform [1, 13]: 20.82 ± 11.32 s
adopted strategy for reaching the platform (the peripheral type and the random type %) [1, 14]: 67.50* %
orientation angle for reaching the platform [1, 14]: 47.22 ± 23.29 °
speed for reaching the platform [1, 14]: 27.31 ± 4.62 cm/s
swimming path length for reaching the platform [1, 14]: 600.43 ± 563.07 cm
time for reaching the platform [1, 14]: 22.73 ± 21.88 s
adopted strategy for reaching the platform (the peripheral type and the random type %) [1, 15]: 75.50* %
orientation angle for reaching the platform [1, 15]: 54.72 ± 24.68 °
speed for reaching the platform [1, 15]: 27.17 ± 13.51 cm/s
swimming path length for reaching the platform [1, 15]: 571.38 ± 716.43 cm
time for reaching the platform [1, 15]: 25.95 ± 33.84 s
adopted strategy for reaching the platform (the peripheral type and the random type %) [1, 16]: 57.50* %
orientation angle for reaching the platform [1, 16]: 53.41 ± 23.18 °
speed for reaching the platform [1, 16]: 20.14 ± 4.25 cm/s
swimming path length for reaching the platform [1, 16]: 278.26 ± 125.79 cm
time for reaching the platform [1, 16]: 14.95 ± 9.19 s
adopted strategy for reaching the platform (the peripheral type and the random type %) [1, 17]: 68.00** %
orientation angle for reaching the platform [1, 17]: 43.23 ± 15.80 °
speed for reaching the platform [1, 17]: 23.96 ± 4.94 cm/s
swimming path length for reaching the platform [1, 17]: 312.55 ± 230.50 cm
time for reaching the platform [1, 17]: 14.17 ± 11.56 s
adopted strategy for reaching the platform (the peripheral type and the random type %) [1, 18]: 65.50%
orientation angle for reaching the platform [1, 18]: 46.47 ± 18.69 °
speed for reaching the platform [1, 18]: 23.50 ± 9.00 cm/s
swimming path length for reaching the platform [1, 18]: 461.68 ± 417.67 cm
time for reaching the platform [1, 18]: 21.76 ± 23.11 s
adopted strategy for reaching the platform (the peripheral type and the random type %) [1, 19]: 68.50%
orientation angle for reaching the platform [1, 19]: 46.29 ± 22.64 °
speed for reaching the platform [1, 19]: 20.87 ± 4.35 cm/s
swimming path length for reaching the platform [1, 19]: 402.97 ± 434.93 cm
time for reaching the platform [1, 19]: 20.62 ± 22.63 s
adopted strategy for reaching the platform (the peripheral type and the random type %) [1, 20]: 52.50** %
orientation angle for reaching the platform [1, 20]: 40.91 ± 15.25 °
speed for reaching the platform [1, 20]: 24.73 ± 4.83 cm/s
swimming path length for reaching the platform [1, 20]: 252.87 ± 161.30 cm
time for reaching the platform [1, 20]: 10.70 ± 6.74 s
LD50 as multiple of the clinical daily dosage [2]: ~824.3 times
LD50 [3]: 110 ± 9.1 mg/kg
crystal form after storage (XRPD) ([4]; 80° C. closed 24 hours, 25° C./60% relative humidity and 40° C./75% relative humidity open one week): unchanged
chemical purity after storage (HPLC) ([4]; all three test conditions: 80° C. closed 24 hours, 25° C./60% RH and 40° C./75% RH open one week): unchanged
pathological change of the common carotid artery occlusion-induced vascular dementia [5]: could relieve the pathological change
solubility thermodynamic at 24 h [6]: 72.9 mg/mL
LD50 [7]: 66.6 ± 3.3 mg/kg
LD50 as multiple of the clinical daily dosage [8]: ~499.5 times
general state, autonomous activity and coordinated movement of the mice ([9]; 4, 8, 16 mg/kg once intragastric): no significant influence
sleep number of animals with subthreshold dose of pentobarbital sodium ([9]; 4, 8 and 16 mg/kg once intragastric): no obvious influence
DVS weight gain [10]: up to 5.2%
pathological damage of cerebral cortex and hippocampus caused by beta-amyloid ([11]; high-dose group (2.8 mg/kg)): could relieve the pathological damage
pathological changes of cortex and hippocampus compared with the model group ([11]; low and medium-dose groups (0.7 and 1.4 mg/kg)): no obvious difference
toxic target organ for long-term administration ([12]; 27 weeks intragastric): could be the liver, but reversible
animals died ([12]; high-dose group 30 mg/kg, 27 weeks): 5 animals
non-toxic reaction dose ([12]; intragastric, 27 weeks): 15 mg/kg
body weight of male and female rats vs control group ([12]; rat, in vivo): obviously reduced
electrocardiogram PR interval, QRS interval, QT interval, T wave, heart rate vs control group ([12]; rat, in vivo): no significant difference
general and microscopic examination of all organs ([12]; rat, in vivo): No obvious pathological changes caused by the drug toxicity
general state, behavioral activity, mental state, fur, urine and feces, food (water) intake ([12]; rat, in vivo): all normal
hematology, blood biochemistry examination and each organ coefficient vs control group ([12]; rat, in vivo): no obvious difference
rats with obvious elevation of the liver function index ALT ([12]; rat, in vivo): 2 rats
